In the experiment the target is T1, BACE enzyme (Homo sapiens, UniProt P56817).
T1 construct: the catalytic domain, appended by a C-terminal poly-histidine tag, is secreted out into the cellular medium; made in house; host or cells: Drosophila melanogaster S2 cells
Briefly: BACE enzyme inhibition, fluorescence-quenched peptide substrate MCA-EVNLDAEFK(DNP). It is filed as biochemical. The note with it: 50 mM acetate, pH 4.5, 0.25 mg/ml bovine serum albumin, 2.5% DMSO; read-out: Activity Rating (based on IC50 values). An excerpt: There are a number of methods by which inhibitors of the BACE enzyme can be identified experimentally. The enzyme can be obtained from membrane samples from natural tissues or cultured cells or can be expressed recombinantly in a host cell by well known methods of molecular biology. […] The enzymatic activity and/or ligand binding capability of the enzyme can be assessed within these membrane samples, or the enzyme can be purified to varying extents. As an illustrative example, the nucleic acid sequence encoding the pro and catalytic domains of human BACE can be appended on the 5′ end with an untranslated and signal sequence from the gene for acetylcholinesterase, and on the 3′ end with a sequence encoding a poly-histidine tag. This cDNA can then be expressed in Drosophila melanogaster S2 cells in which the signal and pro sequences of the transcribed/translated protein are removed by cellular proteases and the catalytic domain, appended by a C-terminal poly-histidine tag, is secreted out into the cellular medium. The enzyme can then be purified from the culture medium by nickel affinity chromatography by methods well known to those trained in the art [Mallender, W. et al., (2001) “Characterization of recombinant, soluble beta-secretase from an insect cell expression system.” Mol. Pharmacol. 59: 619-626]. Similar strategies for expressing and purifying various forms of BACE in bacterial, mammalian and other cell types would be known to one skilled in the art.
The enzyme thus obtained can be put in contact with a test compound and with an appropriate substrate on which enzyme-mediated peptide bond hydrolysis is known to occur. The ability of the test compound to diminish the rate of substrate hydrolysis can then be quantified as a measure of inhibition potency. Appropriate substrates can be prepared as peptides, proteins, or chemically modified versions of peptides or proteins, that contain an amino acid sequence that is recognized as a substrate by the enzyme. For example, the amino acid sequence immediately proximal to the beta-cleavage site within Swedish mutant APP is known to be recognized as a substrate for BACE. […] Longer peptide and protein substrates can also be designed by extending the amino acid composition on the N-terminal, the C-terminal, or both ends.
In one known application of (SEQ. ID. NO.:1), X is a 7-methoxycoumarin-4-acetyl (MCA) group and Y is a dinitrophenyl (DNP) group [Marcinkeviciene, J. et al., (2001) “Mechanism of inhibition of beta-site amyloid precursor protein-cleaving enzyme (BACE) by a statine-based peptide.” J. Biol. Chem. 276: 23790-23794]. When this peptide is intact, the natural fluorescence of the MCA group is quenched by its proximity to the DNP group. […] The increase in fluorescence intensity that accompanies enzyme-mediated peptide hydrolysis can be measured as a function of time to quantify the velocity of enzyme catalysis. In a typical assay system the BACE enzyme is diluted into a buffer system composed of 50 mM acetate, pH 4.5 containing 0.25 mg/ml bovine serum albumin. To this is added neat dimethyl sulfoxide (DMSO) or a stock solution of test compound dissolved in DMSO so that the final amount of DMSO in all assays is held constant at 2.5% (v:v). The enzymatic reaction is then initiated by addition of a stock solution of the substrate peptide to a known concentration. The fluorescence increase with time after substrate addition is monitored with an appropriate fluorescence detection instrument, such as a microplate reader or spectrofluorometer. The slope of the signal vs. time plot (progress curve) for samples to which only DMSO was added is taken as a measure of the uninhibited velocity and represents 100% enzymatic activity.

For orientation: IC50 means the midpoint of a concentration-inhibition curve.

T1 sequence (P56817 75-416 limits assumed): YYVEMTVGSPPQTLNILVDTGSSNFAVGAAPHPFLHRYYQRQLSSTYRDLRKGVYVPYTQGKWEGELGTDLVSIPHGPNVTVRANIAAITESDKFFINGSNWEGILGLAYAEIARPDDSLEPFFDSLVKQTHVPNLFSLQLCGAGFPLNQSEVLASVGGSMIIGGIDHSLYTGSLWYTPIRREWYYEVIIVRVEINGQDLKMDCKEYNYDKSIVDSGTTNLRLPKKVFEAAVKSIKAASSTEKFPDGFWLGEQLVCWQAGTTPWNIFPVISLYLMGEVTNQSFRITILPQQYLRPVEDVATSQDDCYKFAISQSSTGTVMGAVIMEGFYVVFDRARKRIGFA

In the case of `C#CCNC[C@@H](O)[C@H](Cc1ccccc1)NC(=O)[C@H](CCc1ccccc1)N1CC[C@](NC(C)=O)([C@@H](C)CC)C1=O` [Example 30, (2S)-2-(3(S)-acetylamino-3-((S)-sec-butyl)-2-oxo-pyrrolidin-1-yl)-N-[(1S,2R)-1-benzyl-2-hydroxy-3-(propargylamino)-propyl]-4-phenyl-butyramide], the half-maximal inhibitory concentration (IC50) was < 100 nM.
With `COc1cccc(CNC[C@@H](O)[C@H](Cc2cc(F)cc(F)c2)NC(=O)[C@H](CCc2ccccc2)N2CC[C@](NC(C)=O)(C(C)C)C2=O)c1` [Example 1, (2S)-2-(3-Acetylamino-3-isopropyl-2-oxo-pyrrolidin-1-yl)-N-[(1S,2R)-1-(3,5-difluoro-benzyl)-2-hydroxy-3-(3-methoxy-benzylamino)-propyl]-4-phenyl-butyramide] the figure was < 100 nM; with `CC[C@H](C)[C@@]1(NC(C)=O)CCN([C@@H](CCc2ccccc2)C(=O)N[C@@H](Cc2cc(F)cc(F)c2)[C@H](O)CNCc2cccc(OC)c2)C1=O` [Example 2, (2S)-2-(3(S)-Acetylamino-3-((S)-sec-butyl)-2-oxo-pyrrolidin-1-yl)-N-[(1S,2R)-1-(3,5-difluoro-benzyl)-2-hydroxy-3-(3-methoxy-benzylamino)-propyl]-4-phenyl-butyramide], < 100 nM.
The same measure for `CCC(=O)N[C@]1([C@@H](C)CC)CCN([C@@H](CCc2ccccc2)C(=O)N[C@@H](CC(C)C)[C@H](O)CNCc2cccc(OC)c2)C1=O` [Example 4, 2(S)-(3(S)-((S)-sec-butyl)-2-oxo-3-propionylamino-pyrrolidin-1-yl)-N—(S)-{1(R)-[1-hydroxy-2-(3-methoxy-benzylamino)-ethyl]-3-methyl-butyl}-4-phenyl-butyramide]: 100 to 1000 nM; for `CC[C@H](C)[C@@]1(NC(C)=O)CCN([C@@H](CCc2ccccc2)C(=O)N[C@@H](Cc2ccccc2)[C@H](O)CNCc2cccc(OC)c2)C1=O` [Example 3, (2S)-2-(3(S)-Acetylamino-3-((S)-sec-butyl)-2-oxo-pyrrolidin-1-yl)-N-[(1S,2R)-1-benzyl-2-hydroxy-3-(3-methoxy-benzylamino)-propyl]-4-phenyl-butyramide]: < 100 nM.
Take `CC[C@H](C)[C@@]1(NC(C)=O)CCN([C@@H](CCc2ccccc2)C(=O)N[C@@H](Cc2ccccc2F)[C@H](O)CNCc2cccc(OC)c2)C1=O` [Example 11, (2S)-2-(3(S)-acetylamino-3-((S)-sec-butyl)-2-oxo-pyrrolidin-1-yl)-N-[(1S,2R)-1-(2-fluorobenzyl)-2-hydroxy-3-(3-methoxy-benzylamino)-propyl]-4-phenyl-butyramide]: the half-maximal inhibitory concentration (IC50) lay in the range of 100 to 1000 nM.
The same measure for `CC[C@H](C)[C@@]1(NC(=O)CCc2cnc[nH]2)CCN([C@@H](CCc2ccccc2)C(=O)N[C@@H](Cc2ccccc2)[C@H](O)CNCc2cccc(OC)c2)C1=O` [Example 20, (2S)-2-(3(S)-(3-3H-imidazol-4-yl-propionylamino)-3-((S)-sec-butyl)-2-oxo-pyrrolidin-1-yl)-N-[(1S,2R)-1-benzyl-2-hydroxy-3-(3-methoxy-benzylamino)-propyl]-4-phenyl-butyramide]: 100 to 1000 nM; for `CCC(C)[C@@]1(NC(=O)CCc2cnc[nH]2)CCN([C@@H](CCc2ccccc2)C(=O)N[C@@H](Cc2ccccc2)[C@@H](O)CNCc2cccc(OC)c2)C1=O` (single isomer, unassigned) [Example 21]: 100 to 1000 nM.
`COc1cccc(CNC[C@@H](O)[C@H](Cc2ccccc2)NC(=O)[C@H](CCc2ccccc2)N2CC[C@](CC3CC3)(NC(C)=O)C2=O)c1` [Example 7, (2S)-2-(3(S)-Acetylamino-3(-cyclopropylmethyl)-2-oxo-pyrrolidin-1-yl)-N-[(1S,2R)-1-benzyl-2-hydroxy-3-(3-methoxy-benzylamino)-propyl]-4-phenyl-butyramide]: the IC50 was < 100 nM.
The same measure for `CC[C@H](C)[C@@]1(NC(C)=O)CCN([C@@H](CCc2ccccc2)C(=O)N[C@@H](Cc2ccccc2)[C@H](O)CNCC2CC2)C1=O` [Example 31, (2S)-2-(3(S)-acetylamino-3-((S)-sec-butyl)-2-oxo-pyrrolidin-1-yl)-N-[(1S,2R)-1-benzyl-2-hydroxy-3-(cyclopropylmethyl)amino-propyl]-4-phenyl-butyramide]: 100 to 1000 nM; for `COc1cccc(CNC[C@@H](O)[C@H](Cc2cc(F)cc(F)c2)NC(=O)[C@H](CCc2ccc3c(c2)OCO3)N2CC[C@@](CC3CC3)(NC(C)=O)C2=O)c1` [Example 39]: < 100 nM; for `CC[C@H](C)[C@@]1(NC(C)=O)CCN([C@@H](CCc2ccccc2)C(=O)N[C@@H](Cc2ccccc2F)[C@H](O)CNCc2cccc(Cl)c2)C1=O` [Example 12, (2S)-2-(3(S)-acetylamino-3-((S)-sec-butyl)-2-oxo-pyrrolidin-1-yl)-N-[(1S,2R)-1-(2-fluorobenzyl)-2-hydroxy-3-(3-chloro-benzylamino)-propyl]-4-phenyl-butyramide]: 100 to 1000 nM.
The same measure for `CC[C@H](C)[C@@]1(NC(C)=O)CCN([C@@H](CCc2ccccc2)C(=O)N[C@@H](Cc2ccccc2)[C@H](O)CNCc2cc(F)cc(F)c2)C1=O` [Example 33, (2S)-2-(3(S)-acetylamino-3-((S)-sec-butyl)-2-oxo-pyrrolidin-1-yl)-N-[(1S,2R)-1-benzyl-2-hydroxy-3-(3,5-difluorobenzylamino)-propyl]-4-phenyl-butyramide]: < 100 nM; for `CC[C@H](C)[C@@]1(NC(=O)CCCO)CCN([C@@H](CCc2ccccc2)C(=O)N[C@@H](Cc2ccccc2)[C@H](O)CNCc2cccc(OC)c2)C1=O` [Example 25, (2S)-2-(3(S)-(4-hydroxybutyrylamino)-3-((S)-sec-butyl)-2-oxo-pyrrolidin-1-yl)-N-[(1S,2R)-1-benzyl-2-hydroxy-3-(3-methoxy-benzylamino)-propyl]-4-phenyl-butyramide]: < 100 nM.
The same measure for `COc1cccc(CC[C@@H](C(=O)N[C@@H](Cc2cc(F)cc(F)c2)[C@H](O)CNCc2cccc(OC)c2)N2CCC(CC3CC3)(NC(C)=O)C2=O)c1` (stereo in doubt) [Example 42, (2S)-2-(3(S)-acetylamino-3-(cyclopropylmethyl)-2-oxo-pyrrolidin-1-yl)-N-[(1S,2R)-1-(3,5-difluorobenzyl)-2-hydroxy-3-(3-methoxybenzylamino)-propyl]-4-(3-methoxyphenyl)-butyramide]: < 100 nM; for `CC(=O)NC1(CC(C)C)CCN([C@@H](CCc2ccccc2)C(=O)N[C@@H](Cc2ccccc2)[C@H](O)CNCC2CC2)C1=O` (stereo in doubt) [Example 32, (2S)-2-(3(S)-acetylamino-3-(isobutyl)-2-oxo-pyrrolidin-1-yl)-N-[(1S,2R)-1-benzyl-2-hydroxy-3-(cyclopropylmethyl)amino-propyl]-4-phenyl-butyramide]: 100 to 1000 nM; for `COc1cccc(CNC[C@@H](O)[C@H](Cc2cc(F)cc(F)c2)NC(=O)[C@H](CCc2ccccc2OC)N2CCC(CC3CC3)(NC(C)=O)C2=O)c1` (stereo in doubt) [Example 38, (2S)-2-(3(S)-acetylamino-3-(cyclopropylmethyl)-2-oxo-pyrrolidin-1-yl)-N-[(1S,2R)-1-(3,5-difluorobenzyl)-2-hydroxy-3-(3-methoxybenzylamino)-propyl]-4-(2-methoxyphenyl)-butyramide]: < 100 nM.
Take `COc1cccc(CNC[C@@H](O)[C@H](Cc2ccccc2)NC(=O)[C@H](CCc2ccccc2)N2CC[C@@](CC3CC3)(NC(C)=O)C2=O)c1` [Example 6, (2S)-2-(3(R)-Acetylamino-3(-cyclopropylmethyl)-2-oxo-pyrrolidin-1-yl)-N-[(1S,2R)-1-benzyl-2-hydroxy-3-(3-methoxy-benzylamino)-propyl]-4-phenyl-butyramide]: the concentration for half-maximal inhibition (IC50) was in the range of 1000 to 50000 nM.

Source of the values: patent US7557137B2, “Gamma-lactams as beta-secretase inhibitors” (Bristol-Myers Squibb Company, priority 2002, dated 2009).
